The values below come from patent publication US9193736B2, “PDE 10a inhibitors for the treatment of type II diabetes” (Janssen Pharmaceutica, NV, priority 2013, dated 2015).

Data set [1] has as its target Rat recombinant PDE10a (rPDE10a) (Rattus norvegicus (Rat), UniProt Q9QYJ6). The data set is described as follows: In vitro assay PDE10a: rat recombinant PDE10a SPA with 3H-cAMP substrate, IC50. The format is biochemical. The conditions noted are these: 60 nM cAMP, read-out: rPDE10a2 IC50. In short, it runs like this:
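Enzyme expressed in Sf9 cells via baculovirus and Ni-sepharose purified; reaction with 3H-cAMP ran 60 min at rt, stopped with PDE SPA beads. Compounds diluted in DMSO at 100-fold final concentration; blanks omitted enzyme.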

Data set [2] concerns the target Human recombinant PDE10A2 (Homo sapiens (Human), UniProt Q9Y233). The data set is described as follows: In vitro hPDE10a: human recombinant PDE10A2 scintillation proximity assay, IC50. The format is biochemical. Conditions: human recombinant PDE10A2, SPA, 60 nM cAMP; read-out: hPDE10a2 IC50. In short, it runs like this: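 Purified recombinant human PDE10A2 (Ni-sepharose) was assayed by SPA, counting [3H]-AMP product captured on yttrium silicate beads added in zinc sulphate stop solution. Inhibition was expressed as % of activity without compound, with a no-enzyme low control. Repeat data points were aggregated.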
A general note: Scintillation proximity formats need no separation of bound from free tracer.

A short description of data set [3]: PDE10a perfused brain permeability study: plasma concentrations at 30 and 120 min, brain concentration at 120 min, brain/plasma ratio. The conditions noted are these: male, Sprague-Dawley, rat; for Kp at 2 h: brain/plasma.
Procedure: PDE10a-Brain Permeability Assay
A. PDE10a-Perfused Brain Permeability Study Protocol
Drug administration by oral gavage, subcutaneous injection or intravenous was carried out using male Sprague Dawley rats under IACUC protocol (SH-MET3010). Male Sprague Dawley rats (Charles River) ˜300-350 g were maintained on a 4% standard rodent diet (Test Diet 5001). They are allowed ad libitum access to water and food. Room temperature was maintained at 64° F. and humidity at 30-70%.
Three animals per compound were provided a dose of 2 mg/mL in 20% HpbCD/Tris pH 8 by tail i.v. or 30 mpk p.o. or s.c. in 20% HpbCD/Tris pH 8, with PDE10a antagonists. A first blood sample was collected at 30 min via retro-orbital sinus (anesthetic by 70% CO2/30% O2) into heparinzed plasma separator tubes. The blood was centrifuged and 100 μL plasma was placed into a 96 well plate and saved on dry ice.
After the 120 min, the final blood sample was collected via retro-orbital sinus under anesthesia by IP 0.5 cc injection of a 4/1 mixture of Ketaset: AnaSed [(prepared 10 mL Ketaset (100 mg/mL Ketamine)+2.5 mL AnaSed (20 mg/mL Xylazine)]. The rats were then perfused with 400 mL heparinized saline (10,000 units/L) through the left ventricle of the heart; the brains were then removed (not including the medulla), weighed and homogenized in PBS (4 mL/g tissue). The samples were stored at −80° C. and submitted for chemical analysis of blood and brain concentrations. Endpoints of sample analysis consists of the plasma concentrations at 30 and 120 min, plus brain concentrations at 120 min.

Structures can show the parent of a compound that is named as a salt.

Chain of Human recombinant PDE10A2 (Q9Y233 267-1055): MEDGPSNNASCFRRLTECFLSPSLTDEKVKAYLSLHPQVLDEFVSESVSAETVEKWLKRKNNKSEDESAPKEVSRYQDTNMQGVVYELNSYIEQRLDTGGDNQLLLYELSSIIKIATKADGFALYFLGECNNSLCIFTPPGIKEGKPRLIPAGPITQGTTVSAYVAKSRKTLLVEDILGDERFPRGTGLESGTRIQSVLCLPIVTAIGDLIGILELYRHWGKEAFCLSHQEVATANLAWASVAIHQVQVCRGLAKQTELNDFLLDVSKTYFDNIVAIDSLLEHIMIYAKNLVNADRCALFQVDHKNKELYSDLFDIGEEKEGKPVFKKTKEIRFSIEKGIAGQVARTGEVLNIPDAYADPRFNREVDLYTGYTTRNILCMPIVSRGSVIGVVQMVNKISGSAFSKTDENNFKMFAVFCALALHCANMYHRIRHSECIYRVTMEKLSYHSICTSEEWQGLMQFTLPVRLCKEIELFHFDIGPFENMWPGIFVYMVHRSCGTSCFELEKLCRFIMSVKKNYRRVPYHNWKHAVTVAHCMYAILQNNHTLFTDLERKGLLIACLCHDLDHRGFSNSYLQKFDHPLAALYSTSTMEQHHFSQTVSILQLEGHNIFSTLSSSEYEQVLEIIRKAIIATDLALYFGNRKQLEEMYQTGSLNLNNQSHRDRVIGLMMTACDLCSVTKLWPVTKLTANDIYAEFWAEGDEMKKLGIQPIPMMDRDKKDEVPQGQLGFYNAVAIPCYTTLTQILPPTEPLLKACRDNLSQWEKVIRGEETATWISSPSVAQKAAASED
Chain of Rat recombinant PDE10a (rPDE10a) (Q9QYJ6 whole entry): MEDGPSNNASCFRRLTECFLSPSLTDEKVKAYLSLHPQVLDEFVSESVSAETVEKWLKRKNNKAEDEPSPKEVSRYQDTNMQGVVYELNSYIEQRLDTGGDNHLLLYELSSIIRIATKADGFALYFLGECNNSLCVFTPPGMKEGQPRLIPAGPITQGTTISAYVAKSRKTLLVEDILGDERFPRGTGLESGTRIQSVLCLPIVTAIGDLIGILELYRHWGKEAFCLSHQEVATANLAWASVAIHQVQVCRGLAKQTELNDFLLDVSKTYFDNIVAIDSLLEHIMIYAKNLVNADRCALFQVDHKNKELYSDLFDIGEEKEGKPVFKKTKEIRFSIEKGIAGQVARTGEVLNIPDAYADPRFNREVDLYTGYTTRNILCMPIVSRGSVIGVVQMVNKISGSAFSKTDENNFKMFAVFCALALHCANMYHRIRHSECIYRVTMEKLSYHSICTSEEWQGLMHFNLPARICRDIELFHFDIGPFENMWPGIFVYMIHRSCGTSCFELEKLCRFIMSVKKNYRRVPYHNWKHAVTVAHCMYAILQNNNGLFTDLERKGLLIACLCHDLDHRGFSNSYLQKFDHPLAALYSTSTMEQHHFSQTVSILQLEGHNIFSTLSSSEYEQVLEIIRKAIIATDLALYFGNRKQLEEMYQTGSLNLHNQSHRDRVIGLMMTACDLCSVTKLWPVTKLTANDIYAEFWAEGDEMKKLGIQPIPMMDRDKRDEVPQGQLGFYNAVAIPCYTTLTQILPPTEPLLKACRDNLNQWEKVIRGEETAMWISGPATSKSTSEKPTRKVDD

The term IC50 denotes the concentration that gives 50% inhibition. As a reminder, the Kp is tissue or fluid exposure divided by exposure in the circulation. As for `O=C(O)c1ccc(-c2c(/C=C/c3ccc4c(n3)CCCC4)nc3c(N4CCOCC4)ccnn23)cc1` [Cpd 76, (E)-4-(8-Morpholino-2-(2-(5,6,7,8-tetrahydroquinolin-2-yl)vinyl)imidazo[1,2-b]pyridazin-3-yl)benzoic acid], the IC50 in data set [1] is 7 nM; in data set [2], 5 nM. Besides, the concentration at 2 h was 9.3 ng/g in data set [3] (brain) and 568 ng/mL in data set [3] (plasma). The Kp at 2 h in data set [3] was determined as 0.02.
In the same order, the values of `COc1cc(-c2c(/C=C/c3ccc4ccccc4n3)nc3c(N4CCOCC4)ccnn23)ccc1C(=O)O` [compound 67, (E)-2-Methoxy-4-(8-morpholino-2-(2-(quinolin-2-yl)vinyl)imidazo[1,2-b]pyridazin-3-yl)benzoic acid] are 5 nM, 22 nM, 16.9 ng/g, 725 ng/mL and 0.02.
In the case of `CS(=O)(=O)NC(=O)c1ccc(-c2c(C#Cc3ccc4ccccc4n3)nc3c(N4CCOCC4)ccnn23)cc1` [compound 83, N-(Methylsulfonyl)-4-(8-morpholino-2-(quinolin-2-ylethynyl)imidazo[1,2-b]pyridazin-3-yl)benzamide], the IC50 in data set [1] and in data set [2] was 1 nM in each case. Also, the figures for the concentration at 2 h in data set [3] (brain) and in data set [3] (plasma) were 0 ng/g and 205 ng/mL, respectively. Moreover, the Kp at 2 h in data set [3] came to 0.
As to `O=C(O)CNc1ccc(-c2c(C#Cc3ccc4ccccc4n3)nc3c(N4CCOCC4)ccnn23)cn1` [Cpd 24, 2-(5-(8-Morpholino-2-(2-(quinolin-2-yl)ethynyl)imidazo[1,2-b]pyridazin-3-yl)pyridin-2-ylamino)acetic acid trifluoroacetic acid salt], the IC50 in data set [1] and in data set [2] was 1 nM in each case. Further, the concentration at 2 h in data set [3] (brain) was found to be 1.35 ng/g; in data set [3] (plasma), 5.37 ng/mL. In addition, the Kp at 2 h in data set [3] was found to be 0.2.
In the case of `CS(=O)(=O)NC(=O)c1ccc(-c2c(CCc3ccc4ccccc4n3)nc3c(N4CCOCC4)ccnn23)cn1` [Cpd 30, N-(Methylsulfonyl)-5-(8-morpholino-2-(2-(quinolin-2-yl)ethyl)imidazo[1,2-b]pyridazin-3-yl)picolinamide trifluoroacetic acid salt], the IC50 in data set [1] worked out at 2 nM; in data set [2], 1 nM. In addition, the figures for the concentration at 2 h in data set [3] (brain) and in data set [3] (plasma) were 40.2 ng/g and 107 ng/mL, respectively. Moreover, the Kp at 2 h in data set [3] is 2.5.
Turning to `c1ccc2nc(SCc3nc4c(N5CCOCC5)ccnn4c3-c3ccc(N4CCNCC4)nc3)ccc2c1` [Cpd 6, 4-(3-(6-(piperazin-1-yl)pyridin-3-yl)-2-((quinolin-2-ylthio)methyl)imidazo[1,2-b]pyridazin-8-yl)morpholine trifluoroacetic acid salt], the IC50 in data set [1] worked out at 25 nM; in data set [2], 20 nM. Moreover, the results for the concentration at 2 h in data set [3] (brain) and in data set [3] (plasma) were 52 ng/g and 135 ng/mL, respectively. In addition, the Kp at 2 h in data set [3] amounted to 0.39.
In the same order, the values of `O=C(Nc1nc2c(N3CCOCC3)ccnn2c1-c1ccc(N2CCNCC2)nc1)c1ccc2ccccc2n1` [Cpd 8, N-(8-Morpholino-3-(6-(piperazin-1-yl)pyridin-3-yl)imidazo[1,2-b]pyridazin-2-yl)quinoline-2-carboxamide trifluoroacetic acid salt] are 813 nM, 603 nM, 38.8 ng/g, 33.7 ng/mL and 1.16.
In the case of `CC(=O)NS(=O)(=O)c1ccc(-c2c(CCc3ccc4ccccc4n3)nc3c(N4CCOCC4)ccnn23)cc1` [compound 42, N-((4-(8-Morpholino-2-(2-(quinolin-2-yl)ethyl)imidazo[1,2-b]pyridazin-3-yl)phenyl)sulfonyl)acetamide], the IC50 in data set [1] and in data set [2] was 1 nM throughout. For the same compound, the concentration at 2 h in data set [3] (brain) came to 0 ng/g; in data set [3] (plasma), 34 ng/mL. The Kp at 2 h in data set [3] was 0.
In the case of `NS(=O)(=O)N1CCN(c2ccc(-c3c(CSc4ccc5ccccc5n4)nc4c(N5CCOCC5)ccnn34)cn2)CC1` [Cpd 20, 4-(5-(8-Morpholino-2-((quinolin-2-ylthio)methyl)imidazo[1,2-b]pyridazin-3-yl)pyridin-2-yl)piperazine-1-sulfonamide], the IC50 was found to be 2 nM in data set [1] and 18 nM in data set [2]. Further, the results for the concentration at 2 h in data set [3] (brain) and in data set [3] (plasma) were 152 ng/g and 492 ng/mL, respectively. Besides, in data set [3], the Kp at 2 h was 0.31.
As to `O=C(O)CCc1ccc(-c2c(/C=C/c3ccc4ccccc4n3)nc3c(N4CCOCC4)ccnn23)cn1` [Cpd 125, (E)-3-(5-(8-Morpholino-2-(2-(quinolin-2-yl)vinyl)imidazo[1,2-b]pyridazin-3-yl)pyridin-2-yl)propanoic acid], the concentration for half-maximal inhibition (IC50) in data set [1] and in data set [2] was 2 nM each time. The concentration at 2 h in data set [3] (brain) came out at 0 ng/g; in data set [3] (plasma), 284 ng/mL. In data set [3], the Kp at 2 h stood at 0.
On to `O=C(O)c1ccc(-c2c(/C=C/c3ccc4ccccc4n3)nc3c(N4CCOCC4)ccnn23)cc1` [compound 40, (E)-4-(8-Morpholino-2-(2-(quinolin-2-yl)vinyl)imidazo[1,2-b]pyridazin-3-yl)benzoic acid trifluoroacetic acid salt], for which the IC50 in data set [1] and in data set [2] was 2 nM throughout. Also, the figures for the concentration at 2 h in data set [3] (brain) and in data set [3] (plasma) were 0 ng/g and 499 ng/mL, respectively. The Kp at 2 h in data set [3] was determined as 0.
On to `O=C(O)CCc1ccc(-c2c(/C=C/c3ccc4ccccc4n3)nc3c(N4CCOCC4)ccnn23)cc1` [Cpd 128, 3-(4-{8-Morpholin-4-yl-2-[(E)-2-quinolin-2-ylethenyl]imidazo[1,2-b]pyridazin-3-yl}phenyl)propanoic acid], for which the IC50 in data set [1] and in data set [2] was 5 nM each time. For the same compound, the concentration at 2 h was determined as 0 ng/g in data set [3] (brain) and 314 ng/mL in data set [3] (plasma). In addition, the partition ratio (Kp) at 2 h in data set [3] worked out at 0.
On to `O=C(O)c1cccc(-c2c(/C=C/c3ccc4ccccc4n3)nc3c(N4CCOCC4)ccnn23)c1` [Cpd 124, (E)-3-(8-Morpholino-2-(2-(quinolin-2-yl)vinyl)imidazo[1,2-b]pyridazin-3-yl)benzoic acid], for which the IC50 is 9 nM in data set [1] and 4 nM in data set [2]. The concentration at 2 h in data set [3] (brain) came out at 0 ng/g; in data set [3] (plasma), 86.6 ng/mL. Further, the Kp at 2 h in data set [3] came out at 0.
In the same order, the values of `O=C(O)CCC(=O)Nc1ccc(-c2c(/C=C/c3ccc4ccccc4n3)nc3c(N4CCOCC4)ccnn23)cc1` [compound 48, (E)-4-((4-(8-Morpholino-2-(2-(quinolin-2-yl)vinyl)imidazo[1,2-b]pyridazin-3-yl)phenyl)amino)-4-oxobutanoic acid] are 6 nM, 9 nM, 0 ng/g, 35 ng/mL and 0.
Turning to `OC(c1ccc(-c2c(/C=C/c3ccc4ccccc4n3)nc3c(N4CCOCC4)ccnn23)cc1)(C(F)(F)F)C(F)(F)F` [compound 52, (E)-1,1,1,3,3,3-Hexafluoro-2-(4-(8-morpholino-2-(2-(quinolin-2-yl)vinyl)imidazo[1,2-b]pyridazin-3-yl)phenyl)propan-2-ol], the IC50 in data set [1] amounted to 41 nM; in data set [2], 52 nM. The concentration at 2 h in data set [3] (brain) worked out at 54 ng/g; in data set [3] (plasma), 326 ng/mL. The Kp at 2 h in data set [3] amounted to 0.16.
Turning to `Oc1ncn(-c2ccc(-c3c(/C=C/c4ccc5ccccc5n4)nc4c(N5CCOCC5)ccnn34)cc2)n1` [Cpd 54, (E)-1-(4-(8-Morpholino-2-(2-(quinolin-2-yl)vinyl)imidazo[1,2-b]pyridazin-3-yl)phenyl)-1H-1,2,4-triazol-3-ol trifluoroacetic acid salt], the IC50 turned out to be 11 nM in data set [1] and 7 nM in data set [2]. For the same compound, the concentration at 2 h was 0 ng/g in data set [3] (brain) and 23 ng/mL in data set [3] (plasma). Moreover, the Kp at 2 h in data set [3] came to 0.
`CS(=O)(=O)NC(=O)c1ccc(-c2c(/C=C/c3ccc4ccccc4n3)nc3c(N4CCOCC4)ccnn23)cc1F` [compound 134, (E)-2-Fluoro-N-(methylsulfonyl)-4-(8-morpholino-2-(2-(quinolin-2-yl)vinyl)imidazo[1,2-b]pyridazin-3-yl)benzamide]: the 50% inhibitory concentration (IC50) was 7 nM in data set [1] and 4 nM in data set [2]. Also, the concentration at 2 h was 0 ng/g in data set [3] (brain) and 926 ng/mL in data set [3] (plasma). Besides, the partition ratio (Kp) at 2 h in data set [3] came to 0.
In the same order, the values of `Oc1nc(O)c(-c2ccc(-c3c(/C=C/c4ccc5ccccc5n4)nc4c(N5CCOCC5)ccnn34)cc2)o1` [Cpd 65, 5-(4-{8-Morpholin-4-yl-2-[(E)-2-quinolin-2-ylethenyl]imidazo[1,2-b]pyridazin-3-yl}phenyl)-1,3-oxazole-2,4-diol] are 8 nM, 10 nM, 14.5 ng/g, 1610 ng/mL and 0.01.
In the same order, the values of `CS(=O)(=O)NC(=O)c1ccc(-c2c(/C=C/c3ccc4ccccc4n3)nc3c(N4CCOCC4)ccnn23)cn1` [Cpd 27, (E)-N-(Methylsulfonyl)-5-(8-morpholino-2-(2-(quinolin-2-yl)vinyl)imidazo[1,2-b]pyridazin-3-yl)picolinamide trifluoroacetic acid salt] are 2 nM, 2 nM, 1.69 ng/g, 438 ng/mL and 0.005.
